Reference: patent US10065990B2, “Cyclic peptide compound, and preparation method, pharmaceutical composition and use thereof” (HANGZHOU GUANYU BIO-MEDICAL CO., LTD, priority 2013, dated 2018)
Read-outs that look alike come from different tables or passages of the source.

Legend:
[1] = test system: PANC-1 (Pac-1, human pancreatic cancer cells); experiment: MTT cancer cell growth inhibition; type: cell-based; conditions: Homo sapiens, PANC-1, 72 h, MTT
Outline: (§1)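 MTT viability, 570 nm, GI50. Cells 1500/well; compound 72 h at final 10^−5–10^−10 M in triplicate.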

[2] = test system: A549 (human lung cancer cells); experiment: MTT cancer cell growth inhibition; type: cell-based; conditions: Homo sapiens, A549, 72 h, MTT
Outline: as §1

[3] = test system: SGC-7901 (human gastric cancer cells); experiment: MTT cancer cell growth inhibition; type: cell-based; conditions: MTT, 72 hours incubation, SGC-7901 cells, read-out: GI50 SGC-7901
Outline: as §1

[4] = test system: lncap (prostate cancer cells); experiment: MTT cancer cell growth inhibition; type: cell-based; conditions: Homo sapiens, LNCaP, 72 h, MTT
Outline: as §1

[5] = test system: Huh-7 (human hepatoma cells); experiment: MTT cancer cell growth inhibition; type: cell-based; conditions: MTT, 72 hours incubation, Huh-7 cells, read-out: GI50 Huh-7
Outline: as §1

[6] = test system: MDA-MB-231 (breast cancer cells); experiment: MTT cancer cell growth inhibition; type: cell-based
Outline: as §1

[7] = test system: MCF-7 (human breast cancer cells); experiment: MTT cancer cell growth inhibition; type: cell-based; conditions: Homo sapiens, MCF7, 72 h
Outline: as §1

[8] = test system: KBM5-T315I (human chronic myelogenous leukemia); experiment: MTT cancer cell growth inhibition; type: cell-based; conditions: MTT, 72 hours incubation, KBM5-T315I cells, read-out: GI50 KBM5-T315I
Outline: as §1

[9] = test system: MOLT-4 (human acute lymphoblastic leukemia cells); experiment: MTT cancer cell growth inhibition; type: cell-based; conditions: Homo sapiens, MOLT-4, 72 h, MTT
Outline: as §1

HDAC1 = HDAC1 (Homo sapiens, UniProt Q13547); experiment: HDAC biochemical activity measurement (fluorescent substrate deacetylation);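 note: fluorogenic acetyl-lysine substrate (20 µM) deacetylated by HDAC1, then developer releases fluorophore read at 360 nm excitation and 460 nm emission, inhibitor incubated 30 min at 37 °C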
HDAC11 = target: T1, HDAC11 (Homo sapiens, UniProt Q96DB2); experiment: as above;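 note: HDAC11 enzyme acting on an acetyl-lysine fluorogenic substrate, then a developer frees the fluorophore, read at excitation 360 nm and emission 460 nm, IC50 over a compound dilution series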
T1 sequence (Q96DB2 1-347): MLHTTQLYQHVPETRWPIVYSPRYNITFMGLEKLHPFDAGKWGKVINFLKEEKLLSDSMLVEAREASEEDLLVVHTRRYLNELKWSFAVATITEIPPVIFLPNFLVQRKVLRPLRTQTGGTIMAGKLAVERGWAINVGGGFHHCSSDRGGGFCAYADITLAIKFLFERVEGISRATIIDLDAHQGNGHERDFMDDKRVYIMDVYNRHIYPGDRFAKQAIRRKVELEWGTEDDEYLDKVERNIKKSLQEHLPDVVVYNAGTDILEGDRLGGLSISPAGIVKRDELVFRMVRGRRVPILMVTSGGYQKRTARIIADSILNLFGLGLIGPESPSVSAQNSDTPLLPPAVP

HDAC7 = target: T2, HDAC7 (Homo sapiens, UniProt Q8WUI4); experiment: as above; conditions: HDAC7; 37° C. 30 minutes;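 note: fluorogenic deacetylation assay using acetyl-lysine substrate at 20 µM, enzyme and compound incubated 30 min at 37 °C, then developer added, fluorescence read at 360/460 nm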
T2 sequence (Q8WUI4 1-952): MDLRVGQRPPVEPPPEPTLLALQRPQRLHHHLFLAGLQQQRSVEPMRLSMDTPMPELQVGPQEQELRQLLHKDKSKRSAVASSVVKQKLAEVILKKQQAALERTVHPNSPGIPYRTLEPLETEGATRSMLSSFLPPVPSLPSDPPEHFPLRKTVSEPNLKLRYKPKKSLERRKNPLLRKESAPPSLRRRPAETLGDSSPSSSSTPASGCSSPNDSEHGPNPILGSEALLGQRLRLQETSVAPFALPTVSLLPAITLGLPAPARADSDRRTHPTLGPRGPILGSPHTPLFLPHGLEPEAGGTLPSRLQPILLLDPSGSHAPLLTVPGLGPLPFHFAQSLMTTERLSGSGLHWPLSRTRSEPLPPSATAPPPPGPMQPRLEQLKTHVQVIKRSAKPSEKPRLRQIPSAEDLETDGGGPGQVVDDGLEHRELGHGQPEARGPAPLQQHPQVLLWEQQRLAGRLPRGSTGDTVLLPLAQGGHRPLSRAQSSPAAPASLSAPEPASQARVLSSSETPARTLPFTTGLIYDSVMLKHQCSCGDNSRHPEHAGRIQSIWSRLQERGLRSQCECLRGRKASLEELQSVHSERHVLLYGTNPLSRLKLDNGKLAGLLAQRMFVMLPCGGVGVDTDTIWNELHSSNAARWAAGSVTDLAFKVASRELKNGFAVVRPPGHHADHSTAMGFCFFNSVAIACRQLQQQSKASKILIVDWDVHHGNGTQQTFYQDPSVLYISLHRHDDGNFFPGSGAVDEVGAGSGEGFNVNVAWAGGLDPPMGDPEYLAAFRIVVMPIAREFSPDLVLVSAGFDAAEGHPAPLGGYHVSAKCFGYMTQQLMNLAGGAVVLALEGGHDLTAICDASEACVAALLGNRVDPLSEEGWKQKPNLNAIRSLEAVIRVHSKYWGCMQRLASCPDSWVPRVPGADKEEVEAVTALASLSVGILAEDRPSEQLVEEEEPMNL

HDAC2 = HDAC2 (Homo sapiens, UniProt Q92769); experiment: as above; conditions: 37° C. 30 minutes;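 note: HDAC2 enzyme with an acetyl-lysine fluorescent substrate, then developer added, fluorescence read at excitation 360 nm and emission 460 nm, inhibition measured across several compound concentrations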
[10] = PANC-1 cells, 72 hours incubation, read-out: GI50 PAN
[11] = A549 cells, 72 hours incubation, read-out: GI50 A54
[12] = lncap cells, 72 hours incubation, read-out: GI50 lnca
[13] = Homo sapiens, MDA-MB-231, 72 h, read-out: GI50 MDA-MB-231, MTT, 72 hours incubation, MDA-MB-231 cells
[14] = MCF-7 cells, 72 hours incubation, read-out: GI50 MCF
[15] = MOLT-4 cells, 72 hours incubation, read-out: GI50 Mol
[16] = HDAC1, 37° C. 30 minutes, read-out: IC50 HDAC1
[17] = read-out: IC50 HDAC11, HDAC11, 37° C. 30 minutes
[18] = 72 hours incubation, read-out: GI50 PAN
[19] = 72 hours incubation, read-out: GI50 A54
[20] = 72 hours incubation, read-out: GI50 lnca
[21] = 72 hours incubation, read-out: GI50 MCF
[22] = 72 hours incubation, read-out: GI50 Mol
[23] = Table 3, column C, read-out: IC50 HDAC1, C (six-membered ring with substituents)

Chain of HDAC1 (Q13547 whole entry, species assumed): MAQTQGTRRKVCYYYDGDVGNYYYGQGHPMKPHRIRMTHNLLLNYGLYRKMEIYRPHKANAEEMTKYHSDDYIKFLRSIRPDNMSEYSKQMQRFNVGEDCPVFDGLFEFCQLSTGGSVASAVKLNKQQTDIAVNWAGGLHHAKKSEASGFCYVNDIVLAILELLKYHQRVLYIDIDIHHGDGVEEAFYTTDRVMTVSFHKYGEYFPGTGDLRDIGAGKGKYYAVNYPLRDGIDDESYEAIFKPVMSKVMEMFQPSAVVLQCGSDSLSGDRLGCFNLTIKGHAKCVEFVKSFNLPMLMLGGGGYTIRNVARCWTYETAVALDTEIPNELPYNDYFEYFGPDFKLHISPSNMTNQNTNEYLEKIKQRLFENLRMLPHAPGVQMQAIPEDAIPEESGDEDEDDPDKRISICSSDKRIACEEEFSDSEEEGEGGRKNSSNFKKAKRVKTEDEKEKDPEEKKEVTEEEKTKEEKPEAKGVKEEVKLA
Chain of HDAC2 (Q92769 whole entry, species assumed): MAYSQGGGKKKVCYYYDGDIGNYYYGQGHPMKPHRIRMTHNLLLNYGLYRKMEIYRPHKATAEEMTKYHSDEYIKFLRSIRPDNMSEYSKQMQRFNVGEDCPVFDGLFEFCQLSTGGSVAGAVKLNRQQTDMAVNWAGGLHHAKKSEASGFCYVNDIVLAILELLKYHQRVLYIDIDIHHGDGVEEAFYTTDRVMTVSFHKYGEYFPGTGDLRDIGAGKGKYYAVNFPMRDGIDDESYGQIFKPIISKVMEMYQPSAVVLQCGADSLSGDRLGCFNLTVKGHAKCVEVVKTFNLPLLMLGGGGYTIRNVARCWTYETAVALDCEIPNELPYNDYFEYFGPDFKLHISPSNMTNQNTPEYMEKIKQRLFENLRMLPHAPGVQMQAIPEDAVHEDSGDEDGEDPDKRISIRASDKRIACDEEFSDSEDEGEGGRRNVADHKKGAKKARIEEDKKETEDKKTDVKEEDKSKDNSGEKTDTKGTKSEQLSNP

SMILES	GI50 ([3]; Homo sapiens, SGC-7901, 72 h)	GI50 ([5]; Homo sapiens, Huh-7, 72 h)	GI50 [6, 13]	GI50 ([8]; Homo sapiens, 72 h)	IC50 (HDAC1; [16])	IC50 (HDAC11; [17])	IC50 HDAC7 (HDAC7)	IC50 (HDAC2)	GI50 [1, 18]	GI50 [2, 19]	GI50 [4, 20]	GI50 [7, 21]	GI50 [9, 22]	IC50 (HDAC11)	other results
CCCCCCCC(=O)SCC/C=C/[C@@H]1CC(=O)NCc2cccc(n2)C(=O)NC(CC)C(=O)N[C@@H](C(C)C)C(=O)O1 (stereo partly drawn) [Compound 245]	63 nM	31 nM	65 nM	12 nM	66 nM	126 nM	no activity	74 nM							GI50 ([1]; 72 hours, present invention, read-out: GI50 PANC-1, a): 140 nM; GI50 [1, 10]: 140 nM; GI50 [2, 11]: 110 nM; GI50 ([2]; 72 hours, present invention, read-out: GI50 A549, a): 110 nM; GI50 ([4]; 72 hours, present invention, read-out: GI50 lncap, a): 860 nM; GI50 [4, 12]: 860 nM; GI50 ([7]; 72 hours, present invention, read-out: GI50 MCF7, a): 41 nM; GI50 [7, 14]: 40 nM; GI50 [9, 15]: 350 nM; GI50 ([9]; 72 hours, present invention, read-out: GI50 Molt-4, a): 350 nM; IC50 (HDAC1; Table 2, read-out: IC50 HDAC1, a (compounds of the present invention)): < 100 nM
C/C=C1\NC(=O)c2cc(F)cc(n2)CNC(=O)C[C@@H](/C=C/CCSC=O)OC(=O)[C@H](C(C)C)NC1=O [Compound 52]	51 nM	31 nM	31 nM	67 nM	45 nM	107 nM	no activity	62 nM	90 nM	50 nM	30 nM	60 nM	30 nM		IC50 (HDAC1; [23]): 45 nM
C/C=C1\NC(=O)c2cccc(n2)CCNC(=O)C[C@@H](/C=C/CCSC(C)=O)OC(=O)[C@H](C(C)C)NC1=O [Example 26]	37 nM	51 nM	98 nM	31 nM	91 nM		no activity	64 nM	770 nM	38900 nM	9000 nM	53700 nM	3350 nM	94 nM	
C/C=C1\NC(=O)c2nc(ccc2C)CNC(=O)C[C@@H](/C=C/CCSC(C)=O)OC(=O)[C@H](Cc2ccccc2)NC1=O [Compound 66]	25 nM	38 nM	38 nM	31 nM	41 nM	94 nM	no activity	16 nM	30 nM	20 nM	30 nM	30 nM	30 nM		IC50 (HDAC1; [23]): 41 nM
C/C=C1\NC(=O)c2nc(ccc2F)CNC(=O)C[C@@H](/C=C/CCSC(C)=O)OC(=O)[C@H](C(C)C)NC1=O [Example 48]					81 nM		no activity	15 nM	40 nM	60 nM	30 nM	60 nM	30 nM	93 nM	GI50 [3]: 69 nM; GI50 [5]: 35 nM; GI50 ([6]; read-out: GI50 MDA-MB-231, MTT, 72 hours incubation, MDA-MB-231 cells): 35 nM; GI50 [8]: 61 nM
C/C=C1\NC(=O)c2ccc(F)c(n2)CNC(=O)C[C@@H](/C=C/CCSC(=O)CCCCCCC)OC(=O)[C@H](C)NC1=O [Example 62]	46 nM	31 nM	31 nM	64 nM	46 nM		no activity	27 nM	80 nM	40 nM	30 nM	60 nM	30 nM	79 nM	
C/C=C1\NC(=O)c2cc(SC)cc(n2)CNC(=O)C[C@@H](/C=C/CCSC(C)=O)OC(=O)[C@H](CC)NC1=O [Compound 178]	76 nM	42 nM	26 nM	22 nM	91 nM		no activity	26 nM						99 nM	GI50 [1, 10]: 350 nM; GI50 [2, 11]: 30 nM; GI50 [4, 12]: 50 nM; GI50 [7, 14]: 30 nM; GI50 [9, 15]: 50 nM
